Assay results from publication PMC10568492 (Journal of medicinal chemistry, 2023).
Marks after values point to notes of the source that are not given here.

Assays:
[1] = molecular target: T1, AR protein (Homo sapiens, UniProt P10275); test: Multiplexed quantitative proteomics analysis in VCaP cells; assay type: cell-based; settings: 10 μM, 24 h
T1 sequence (P10275 1-920): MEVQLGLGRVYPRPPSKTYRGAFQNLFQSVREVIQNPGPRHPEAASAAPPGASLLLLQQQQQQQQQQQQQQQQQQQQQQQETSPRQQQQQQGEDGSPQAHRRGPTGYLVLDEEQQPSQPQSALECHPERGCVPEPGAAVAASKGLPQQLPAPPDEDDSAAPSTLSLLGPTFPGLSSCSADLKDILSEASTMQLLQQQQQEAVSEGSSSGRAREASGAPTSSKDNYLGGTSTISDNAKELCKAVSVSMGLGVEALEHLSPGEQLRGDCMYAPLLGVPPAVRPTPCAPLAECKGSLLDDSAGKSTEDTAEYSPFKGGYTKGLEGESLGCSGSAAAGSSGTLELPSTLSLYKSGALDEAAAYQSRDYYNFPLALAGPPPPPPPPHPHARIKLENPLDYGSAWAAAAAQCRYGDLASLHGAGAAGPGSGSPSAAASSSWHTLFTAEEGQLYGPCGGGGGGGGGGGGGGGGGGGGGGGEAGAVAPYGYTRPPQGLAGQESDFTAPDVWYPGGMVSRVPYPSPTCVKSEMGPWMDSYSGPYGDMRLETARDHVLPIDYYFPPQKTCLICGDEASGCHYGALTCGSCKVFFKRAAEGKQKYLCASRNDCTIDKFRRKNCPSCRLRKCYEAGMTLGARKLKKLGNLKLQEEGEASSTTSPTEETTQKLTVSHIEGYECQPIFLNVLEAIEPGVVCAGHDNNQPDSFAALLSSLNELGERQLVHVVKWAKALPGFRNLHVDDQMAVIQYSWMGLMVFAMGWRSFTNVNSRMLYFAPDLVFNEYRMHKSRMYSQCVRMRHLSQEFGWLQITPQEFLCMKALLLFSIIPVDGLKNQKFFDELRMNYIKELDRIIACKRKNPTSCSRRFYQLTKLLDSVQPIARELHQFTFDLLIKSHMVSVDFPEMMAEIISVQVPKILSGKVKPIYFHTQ

[2] = molecular target: T1, AR protein; test: AR protein degradation in VCaP cells, Western blotting; assay type: cell-based; settings: VCaP and LNCaP cell lines
[3] = tested on: KLK3 (PSA) gene; test: Suppression of KLK3; assay type: cell-based, human
[4] = PK study in mouse; assay type: in vivo; settings: male, ICR, plasma, po, 5 mg/kg
[5] = PK study in rat; assay type: in vivo; settings: male, Sprague-Dawley, plasma, po, 10 mg/kg
[6] = PK study in dog; assay type: in vivo; settings: male, beagle, plasma, po, 1 mg/kg
[7] = tested on: VCaP xenograft tumor; test: Antitumor activity in VCaP xenograft tumor model in SCID mice; assay type: in vivo, mouse; settings: all doses tested (3.75-25 mg/kg), entire experiment
[8] = molecular target: T2, AR-LBD protein (Rattus norvegicus, UniProt P15207); test: AR fluorescence-polarization; assay type: binding
T2 sequence (P15207 651-882 limits assumed): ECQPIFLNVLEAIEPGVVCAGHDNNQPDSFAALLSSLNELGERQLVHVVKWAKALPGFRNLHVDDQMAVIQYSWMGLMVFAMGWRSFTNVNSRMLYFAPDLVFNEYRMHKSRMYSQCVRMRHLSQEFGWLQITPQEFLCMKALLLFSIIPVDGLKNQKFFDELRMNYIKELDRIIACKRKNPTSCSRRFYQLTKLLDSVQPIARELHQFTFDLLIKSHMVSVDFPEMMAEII

[9] = Oral exposure in mice; assay type: in vivo, mouse; settings: for Plasma drug concentration (mean ± SD): mice, 10 mg/kg oral gavage
[10] = male, SCID, mouse, plasma, po, 10 mg/kg

C[C@H]1CC2(CCN(c3ccc(C(=O)N4CCN(C)CC4)cc3)CC2)CN1c1ccc(C#N)c(Cl)c1 [ARi-12, (S)-2-chloro-4-(3-methyl-8-(4-(4-methylpiperazine-1-carbonyl)phenyl)-2,8-diazaspiro[4.5]decan-2-yl)benzonitrile]
effect on protein levels (proteomics) [1]: did not significantly alter the levels of any proteins analyzed

C[C@H]1CC2(CCN(c3ccc(C(=O)N4CCN(C5CN(c6ccc7c(c6)C(=O)N(C6CCC(=O)NC6=O)C7=O)C5)CC4)cc3)CC2)CN1c1ccc(C#N)c(Cl)c1 (stereo partly drawn) [Compound 30, 2-chloro-4-((3S)-8-(4-(4-(1-(2-(2,6-dioxopiperidin-3-yl)-1,3-dioxoisoindolin-5-yl)azetidin-3-yl)piperazine-1-carbonyl)phenyl)-3-methyl-2,8-diazaspiro[4.5]decan-2-yl)benzonitrile]
times more potent than ARV-110 in inducing AR degradation [2]: 6-9
times more potent than Enzalutamide in suppressing KLK3 gene expression ([3]; VCaP and LNCaP cell lines): at least 30
suppression of expression of KLK3 gene ([3]; VCaP, 1 nM, 24 h): 51%
AUC(0-t) [4]: 11700 ng·h/mL
Cmax [4]: 1480 ng/mL
AUC(0-t) [5]: 12800 ng·h/mL
Cmax [5]: 1470 ng/mL
AUC [6]: 1820 ng·h/mL
signs of toxicity [7]: no signs of toxicity

CN1CCN(c2ccc(C(=O)N3CCC4(CC3)CCN(c3ccc(C#N)c(Cl)c3)C4)cc2)CC1 [Compound 14b]
times more potent than 14a in AR binding ([8]; vs 14a): 2

N#Cc1ccc(N2CCC3(CCN(c4ccc(C(=O)N5CCN(C6CN(c7ccc8c(c7)C(=O)N(C7CCC(=O)NC7=O)C8=O)C6)CC5)cc4)CC3)C2)cc1Cl (stereo not drawn) [Compound 27, 2-chloro-4-(8-(4-(4-(1-(2-(2,6-dioxopiperidin-3-yl)-1,3-dioxoisoindolin-5-yl)azetidin-3-yl)piperazine-1-carbonyl)phenyl)-2,8-diazaspiro[4.5]decan-2-yl)benzonitrile]
concentration at 1 h [9, 10]: 501 ng/mL
concentration at 3 h [9, 10]: 171 ng/mL
concentration at 6 h [9, 10]: 246 ng/mL
concentration at 24 h [9, 10]: 44 ng/mL
Plasma drug concentration (mean ± SD) ([9]; 1 h, 10 mg/kg): 501 ± 106 ng/mL
Plasma drug concentration (mean ± SD) ([9]; 3 h, 10 mg/kg): 171 ± 83 ng/mL
Plasma drug concentration (mean ± SD) ([9]; 6 h, 10 mg/kg): 246 ± 27 ng/mL
Plasma drug concentration (mean ± SD) ([9]; 24 h, 10 mg/kg): 44 ± 5 ng/mL

2-chloro-4-(8-(4-(4-(4-(2-(2,6-dioxopiperidin-3-yl)-1,3-dioxoisoindolin-5-yl)piperazin-1-yl)piperidin-1-yl)benzoyl)-2,8-diazaspiro[4.5]decan-2-yl)benzonitrile [Compound 20]
Plasma drug concentration (mean ± SD) ([9]; 1 h): 82^b ng/ml
Plasma drug concentration (mean ± SD) ([9]; 3 h): 57^b ng/ml
Plasma drug concentration (mean ± SD) ([9]; 6 h): 91^b ng/ml
Plasma drug concentration (mean ± SD) ([9]; 24 h): 3^b ng/ml

N#Cc1ccc(N2CCC3(CCN(c4ccc(C(=O)N5CCCN(C6CCN(c7ccc8c(c7)C(=O)N(C7CCC(=O)NC7=O)C8=O)CC6)CC5)cc4)CC3)C2)cc1Cl (stereo not drawn) [Compound 21, 2-chloro-4-(8-(4-(4-(1-(2-(2,6-dioxopiperidin-3-yl)-1,3-dioxoisoindolin-5-yl)piperidin-4-yl)-1,4-diazepane-1-carbonyl)phenyl)-2,8-diazaspiro[4.5]decan-2-yl)benzonitrile]
concentration at 1 h [9, 10]: 46 ± 16 ng/mL
concentration at 3 h [9, 10]: 8 ± 1 ng/mL
concentration at 6 h [9, 10]: 11 ± 3 ng/mL

N#Cc1ccc(N2CCC3(CCN(c4ccccc4)CC3)C2)cc1Cl [Compound 15a]
IC50 [8]: > 1000 nM
